Data reported in US5804583A, “Pyrimidinone derivatives fused to nitrogen heterocycles having a II antagonistic activity” (Istituto Luso Farmaco D'Italia, priority 1993, dated 1998).
pKi: −log10 of the molar value.

Legend:
A II receptor [1] = assay: receptor binding test: displacement of 125I-Sar1-Ile8-AT II or [3H] AT II in the rat adrenal cortex
From the text: (§1) The compounds described in the present invention act as antagonists at the A II receptor level. For the characterization and the evaluation of the effectiveness of the compounds of the invention, in vitro tests (such as the inhibition of the A II-induced contraction in the rabbit aorta and the displacement of ^125 I-Sar^1 -Ile^8 -AT II or [^3 H] AT II in the rat adrenal cortex) and an in vivo test (the inhibition of the A II-induced pressory response in the ganglio-blocked normotensive rat) were selected.

A II receptor [2] = assay: inhibition of the A II-induced contraction in the rabbit aorta
From the text: as §1

- pKi (A II receptor [1]): 8.30
SMILES: CCCCc1c(Cc2ccc(-c3ccccc3-c3nnn[nH]3)cc2)c(=O)nc2n1C(C)C(=O)N2 (centres unmarked) [ex.6, 5-butyl-3-methyl-6-[[2'-(1H-tetrazol-5-yl)biphenyl-4-yl]methyl]imidazo[1,2-a]pyrimidin-2,7-dione]
- PKB (A II receptor [2]): 10.4
